Data reported in PubChem BioAssay AID687027 (Broad Institute, 2013).

System: RMG-I TPO-Luc reporter, SteadyGlo luminescence, 24 h
Assay: inhibitors of PAX8-driven TPO luciferase reporter, dose response, RMG-I cells, cherry-pick (AID 687027);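 also: potency for lowering reporter light which is read as Pax8 inhibition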

COC(C(=O)C(O)C(C)O)C1Cc2cc3cc(OC4CC(OC5CC(O)C(O)C(C)O5)C(O)C(C)O4)c(C)c(O)c3c(O)c2C(=O)C1OC1CC(OC2CC(OC3CC(O)C(OC)C(C)O3)C(O)C(C)O2)C(O)C(C)O1 (stereo unspecified)
AC50: < 260 nM
